From patent publication US10238710B2, “Peptide having anti-inflammatory, osteogenic and hair growth promoting activities, and use of same” (CAREGEN CO., LTD., priority 2014, dated 2019)

Legend:
[1] = system: TNFR; test: Receptor binding assay (TNFR), ELISA; details: peptide coated 50 μg/25 μl, O.D. 450 nm, positive control TNF-α
[2] = system: RAW264.7 cells; test: Proliferation assay of macrophages treated with TNF-α (SRB); format: cell-based, mouse; details: 100 ng/ml TNF-α and 50 μg/ml peptide, 72 hours
Protocol: The mouse macrophage cell line, raw 264.7 cells were seeded on a 48-well plate at a density of 1×10^4 cells/well. After stabilization for 24 hours, the cells were incubated in a serum-free medium for 6 hours, and then simultaneously treated with 100 ng/ml TNF-α and 50 μg/ml peptide, followed by incubation for 72 hours. After the completion of the incubation, the supernatant was removed and the cells were immobilized using ethanol, and after the cell immobilization was ended, the cells were washed three times with phosphate buffer saline (PBS). After the wash solution was removed, the cells were treated with colorimetric SRB solution, and sufficiently washed with 1% acetic acid. Then, the cells were observed using a microscope to observe the conditions of living cells. The absorbance for the solution decolorized with 20 mM tris was read at UV light of 560 nm, thereby measuring the survival conditions of cells.

[3] = system: NF-κB; test: Western blotting in HaCaT cells, nuclear translocation of NF-κB activated by TNF-α; format: cell-based, human; details: peptide at different concentrations
[4] = system: IL-1β; test: IL-1β ELISA in THP-1 cells treated with TNF-α; format: cell-based, human; details: 10 μg/ml pre-treatment 30 minutes, 50 ng/ml TNF-α, 24 hours
Protocol: (§1) The human monocytes, THP-1 cells were seeded on a 24-well plate at a density of 2×10^6 cells/well. After incubation overnight, the cells were pre-treated with the samples at 10 μg/ml for 30 minutes, and treated with 50 ng/ml TNF-α, followed by incubation for 24 hours. The cell incubation medium was obtained, followed by centrifugation at 13,000 rpm for 10 minutes at 4° C., and then the supernatant was separated. ELISA was carried out using IL-1b and IL-8 ELISA kit (R&D system).

[5] = system: IL-8; test: IL-8 ELISA in THP-1 cells treated with TNF-α; format: cell-based, human; details: 10 μg/ml pre-treatment 30 minutes, 50 ng/ml TNF-α, 24 hours
Protocol: as §1

[6] = system: Phospho-PI3K; test: Western blotting using osteoblasts (PI3K phosphorylation); format: cell-based; details: mouse osteoblast line, 50 μg/ml, 15 minutes
Protocol: The cells were treated with the peptides at 50 μg/ml for 15 minutes (positive control: HGF 50 ng/ml). The cells were treated with the cell lysis buffer to obtain a lysate, followed by protein quantification, and then western blotting was performed with respect to Phospho-PI3K (P-PI3K) using anti-pPI3K antibody (Santa Cruz Biotechnology, USA).

[7] = system: MC3T3-E1 cells; test: Alizarin red staining (mineralization) of MC3T3-E1 cells; format: cell-based, mouse; details: MC3T3-E1, 10 and 50 μg/ml, 14 days
Protocol: Here, the medium exchange every three days and the treatment with the peptide were repeated (positive control: 30 ng/ml rhBMP2 (Cell signaling)). After the completion of the incubation, the plate well was washed two times with PBS, and the cells were immobilized by the treatment with 70% EtOH for 1 hour. Then, the cells were stained with 40 mM Alizarin red S (pH 4.2, Sigma Aldrich) for 10 minutes. The cells were treated with 10% cetyl pyridinium chloride (dissolved in 10 mM sodium phosphate (pH 7.0)) for 15 minutes, and then the absorbance was read at 560 nm using a spectrophotometer (SpectraMax, Molecular Devices).

[8] = system: bone sialoprotein (BSP); test: RT-PCR of osteogenic differentiation marker BSP; format: cell-based, mouse; details: MC3T3-E1, three days
[9] = system: human hair follicle dermal papilla cells (HFDPC); test: Cell proliferation assay (SRB), HFDPC; format: cell-based; details: 1, 10 and 50 μg/ml, 72 hours
Protocol: (§2) In order to observe the cell proliferation effect on human hair follicle dermal papilla cells, human hair follicle germinal matrix cells, and human umbilical vein endothelial cells, which are main hair cells, each type of cells were seeded on a 96-well plate at a density of 3×10^3 cells/well, followed by incubation under conditions of 37° C. and 5% CO2 for 24 hours. After the medium was exchanged with the same culture medium completely excluding serum, the cells were treated with the peptides at different concentrations (1 μg/ml, 10 μg/ml, and 50 μg/ml), followed by incubation under the same conditions for 72 hours. After the incubation supernatant was removed, the cells were immobilized using ethanol, and washed three times with phosphate buffer saline (PBS). The wash solution was removed, and the cells were stained through the treatment with colorimetric SRB solution. After the cells were sufficiently washed with 1% acetic acid, the cells were observed using a microscope to observe the state of living cells. The absorbance was read at UV light of 560 nm, thereby measuring the survival conditions of cells

[10] = system: human umbilical vein endothelial cells (HUVEC); test: Cell proliferation assay (SRB), HUVEC; format: cell-based; details: 1, 10 and 50 μg/ml, 72 hours
Protocol: as §2

[11] = system: β-catenin; test: Western blotting of cell signaling material, β-catenin; format: cell-based, human; details: HFDPC, 1 and 10 μg/ml, 30 minutes and 60 minutes
Protocol: In order to observe the changes in the phosphorylation of ERK and the expression of PI3K, which are main signaling materials involved in cell proliferation in the human hair follicle dermal papilla cells, the cells were treated with the peptides of the present invention for 30 minutes and 60 minutes, and then subjected to western blotting using specific antibodies, thereby observing the pERK and PI3K changes. The test was carried out using anti-pERK antibody (Santa Cruz Biotechnology, USA) and anti-pPI3K antibody (Santa Cruz Biotechnology, USA).
The cells were treated with the cell lysis buffer to obtain a lysate, followed by protein quantification, and then western blotting was performed with respect to Phospho-ERK (pERK), PI3K, and β-catenin.

[12] = system: Ha3-II and keratin 14; test: RT-PCR of keratinocyte differentiation markers in HaCaT cells; format: cell-based, human; details: HaCaT, 0.1, 1 and 10 μg/ml, 24 hours
Protocol: The cells were treated with the peptides at different concentrations (0.1 μg/ml, 1 μg/ml, and 10 μg/ml), and then incubated in an incubator at 37° C. for 24 hours. […] RT-PCR was carried out using primers of respective markers (Ha3-II and keratin 14) and PCR pre-mix (Intron) to measure the changes in the expression of the markers.
Target-specific primer sequences used in PCR for keratinocyte differentiation markers were as follows: Ha3-II forward primer sequence, 5′-[…]-3′ and Ha3-II reverse primer, 5′-[…]-3′ (annealing temperature, 60° C.); Keratin14 forward primer sequence, 5′-[…]-3′ and Keratin14 reverse primer, 5′-[…]-3′ (annealing temperature, 60° C.)

[13] = system: alkaline phosphatase (ALP); details: MC3T3-E1, three days, RT-PCR
Protocol: MC3T3-E1 (mouse osteoblast line) cells were seeded on a 6-well plate at a cell density of 1×10^5 cells/well. The cells incubated overnight were treated with the peptides at different concentrations (10 and 50 μg/ml), followed by incubation in an incubator at 37° C. for three days (positive control: 100 ng/ml BMP2 (Cell signaling)). After the incubation-completed cells were collected, the cells were treated with RNA extraction solution (Easy Blue, Intron) to prepare RNA, and then cDNA was synthesized using RT pre-mix (Intron). PCR was carried out using primers of respective markers (OPG, ALP, BSP) and PCR pre-mix (Intron).
Target-specific primer sequences used in PCR for osteogenic differentiation markers were as follows: OPG forward primer sequence, 5′-[sequence]-3′ and OPG reverse primer, 5′-[sequence]-3′ (annealing temperature, 60° C.); ALP forward primer sequence, 5′-[sequence]-3′ and ALP reverse primer, 5′-[sequence]-3′ (annealing temperature, 60° C.); BSP forward primer sequence, 5′-[sequence]-3′ and BSP reverse primer, 5′-[sequence]-3′ (annealing temperature, 60° C.)
5 μl of PCR product was loaded on 1% agarose gel, followed by electrophoresis, and then the bands were investigated using Gel-Doc.

NH2-Ala-Cys-Arg-Ser-Ala-Ile-Gly-Arg-Pro-Cys-COOH (H-ACRSAIGRPC-OH; cysteine pairing not given here) [SEQ ID NO: 1]
binding affinity to TNFR [1]: high binding affinity
proliferation of RAW264.7 cells increased with TNF-α treatment [2]: reduced
nuclear translocation of NF-κB activated by TNF-α treatment [3]: reduced
expression of IL-1β increased by TNF-α treatment [4]: inhibited
expression of IL-8 increased by TNF-α treatment [5]: inhibited
phosphorylation of PI3K by HGFR signal stimulation [6]: increased
mineralization (Alizarin red staining) [7]: increased
expression of bone sialoprotein (BSP) [8]: increased
cell proliferation, HFDPC [9]: increased in a concentration-dependent manner
cell proliferation, HUVEC [10]: increased in a concentration-dependent manner
expression of β-catenin [11]: increased
mRNA expression levels of differentiation markers Ha3-II and keratin 14 [12]: keratinocyte differentiation promoting effect
expression of alkaline phosphatase (ALP) [13]: increased
